Where “and” joins values, the source holds several entries; their conditions need not be identical. Equal entries are not always repeated.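 Where inhibition never reached the appropriate level, the endpoint shown equals the highest concentration tested. Otherwise, values were interpolated linearly from a five-concentration, 48-hour dose response in 96-well plates. GI50: concentration for 50% inhibition of growth. Definition used: TGI = concentration required for complete inhibition of growth.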
How the values were obtained:
Assay in all cases: NCI anticancer screen, dose series, 48 h
[1] = system: EKVX NSCLC
[2] = system: SN12C renal
[3] = system: A549 NSCLC
[4] = system: SNB-19 CNS
[5] = system: OVCAR-4 ovarian
[6] = system: OVCAR-3 ovarian
[7] = system: HT29 colon
[8] = system: SF-268 CNS
[9] = system: NCI-H226 lung
[10] = system: M14 melanoma

| SMILES | GI50 [1] | TGI [1] | GI50 [2] | TGI [2] | GI50 [3] | TGI [3] | GI50 [4] | TGI [4] | GI50 [5] | TGI [5] | GI50 [6] | TGI [6] | GI50 [7] | TGI [7] | GI50 [8] | TGI [8] | GI50 [9] | TGI [9] | GI50 [10] | TGI [10] |
| --- | --- | --- | --- | --- | --- | --- | --- | --- | --- | --- | --- | --- | --- | --- | --- | --- | --- | --- | --- | --- |
| COc1cc(-n2ccnc2-c2ccc3ccccc3c2)cc(OC)c1OC | 0.481 µM | > 72.4 µM | 1.64 µM | > 59 µM | 0.12 µM | > 45.4 µM | 0.131 µM | > 36.7 µM | 6.32 µM | > 86.2 µM | 0.0288 µM | 19.4 µM | < 0.0222 µM | > 37.6 µM | 0.182 µM | 49.8 µM | 5.7 µM | > 53.7 µM | 0.0376 µM | 1.02 µM |
| CCCCN(CC)C(=O)C(=O)Cc1nc2ccc(C(=O)c3ccccc3)cc2[nH]c1=O |  | > 100 µM |  | > 100 µM |  | > 100 µM |  | > 100 µM |  | > 100 µM |  | > 100 µM |  | > 100 µM |  | > 100 µM |  | > 100 µM |  | > 100 µM |
| CC(C)(C)C1=CC(=N/N=c2\scc(-c3ccccc3)n2-c2ccccc2)C=C(C(C)(C)C)C1=O |  | > 100 µM |  | > 100 µM |  | > 100 µM |  | > 100 µM |  | > 100 µM |  | > 100 µM |  | > 100 µM |  | > 100 µM |  | > 100 µM |  | > 100 µM |
| O=C(O)c1cccc(S(=O)(=O)NCCO)c1 |  | > 100 µM |  | > 100 µM |  | > 100 µM |  | > 100 µM |  | > 100 µM |  | > 100 µM |  | > 100 µM |  | > 100 µM |  | > 100 µM |  | > 100 µM |
| CN1C(=O)CCC(N2C(=O)c3cccc(NCCOCCOCCNC(=O)c4cc5c(o4)C(=O)c4ccccc4C5=O)c3C2=O)C1=O (centres undefined) | 2.59 µM | 7.28 µM | 1.41 µM | 2.79 µM | 1.99 µM | 4.49 µM | 1.58 µM | 5.57 µM | 1.43 µM | 2.8 µM | 1.53 µM | 4 µM | 2.66 µM | 6.98 µM | 2.38 µM | 6.79 µM | 1.67 µM | 3.78 µM | 1.35 µM | 2.74 µM |
| CCOC(=O)c1[nH]c2cc(Cl)ccc2c1[C@@H](C(=O)NC(C)(C)C)N(CC)C(=O)CCCCC#Cc1cccc2c1CN(C1CCC(=O)NC1=O)C2=O (some centres undefined) | 1.39 µM | 45.5 µM | 0.283 µM | > 100 µM | 1.3 µM | > 89.4 µM | 0.0731 µM | 34.5 µM | < 0.01 µM | 23.5 µM | 1.58 µM | > 38.9 µM | 2.13 µM | > 100 µM | 0.0476 µM | 28.7 µM | 0.0343 µM |  | 0.213 µM | 17.7 µM |
| CC1=CCC2CC1C(C(=O)c1c[nH]c3ccccc13)=NC2(C)C (centres undefined) |  | > 100 µM |  | > 100 µM |  | > 100 µM |  | > 100 µM |  | > 100 µM |  | > 100 µM |  | > 100 µM |  | > 100 µM |  | > 100 µM |  | > 100 µM |
| CCCCCCCCCCCCSC(=S)c1c(C)[nH]n(-c2ccccc2)c1=O |  | > 50 µM |  | > 50 µM |  | > 50 µM |  | > 50 µM |  | > 50 µM |  | 46.1 µM |  | 36.6 µM |  | > 50 µM |  | > 50 µM |  | > 50 µM |
| COc1cc2nc(Nc3cccc(Cl)c3)nc(N)c2cc1OC | 12.9 µM | 27 µM | 12 µM | 24.3 µM | 9.89 µM | 27.3 µM | 14.6 µM | 28 µM | 10.7 µM | 26.3 µM | 4.12 µM | 12.6 µM | 3.23 µM | 12.4 µM | 6.41 µM | 19.9 µM | 16 µM | 29.5 µM | 1.87 µM | 3.73 µM |
| CCOC(=O)C12CCCC1(O)N(NC(=O)OC)C(C)=C2C(=O)OC (centres undefined) |  | > 100 µM |  | > 100 µM |  | > 100 µM |  | > 100 µM |  | > 100 µM |  | > 10 µM |  | > 100 µM |  | > 100 µM |  | > 100 µM |  | > 100 µM |
| Cn1ncc(Cl)c1-c1cc(C(=O)N[C@H](CN)Cc2cccc(F)c2)sc1Cl | 3.24 µM | > 10 µM | 1.86 µM and 2.04 µM | > 10 µM and 19.3 µM | 0.946 µM and 2.32 µM | > 10 µM and 16 µM | 0.34 µM and 0.783 µM | 1.87 µM and 13.4 µM | 4.9 µM and 6.33 µM | > 10 µM and 19.3 µM | 1.18 µM and 2.8 µM | > 10 µM and 15.4 µM | 0.733 µM and 2.03 µM | > 6.18 µM and 13.9 µM | 1.72 µM and 3.64 µM | > 9.54 µM and 17.1 µM | > 4.48 µM and 11.6 µM | > 10 µM and 32.2 µM | 1.1 µM and 2 µM | 3.14 µM and 6.49 µM |
| CN(C)c1ccc(/C=N/NC(N)=S)nc1 | 3.09 µM | > 100 µM | 3.51 µM | > 100 µM | 4.61 µM | > 100 µM | 5.64 µM | > 100 µM | 4.3 µM | > 100 µM | 2.54 µM | > 100 µM | 4.46 µM | > 100 µM | 2.22 µM | 28.2 µM | 3.54 µM | 52.7 µM | 2.28 µM | 5.23 µM |
| CCSC[C@@H]1C[C@](O)(c2ccc(Cl)cc2)[C@@H](c2ccc(Cl)cc2)O1 | 17.3 µM | 40.7 µM | 17.6 µM | 34.6 µM | 17.3 µM | 33.2 µM | 18.8 µM | 50 µM | 16.7 µM | 32.1 µM | 18.8 µM | 36.1 µM | 15.6 µM | 30.8 µM | 18.5 µM | 35.7 µM | 17.8 µM | 37.3 µM | 15.3 µM | 29.6 µM |
| COc1cnc2c(c1)C(=O)c1c-2n(CCCN2CCCC2)c(=O)c2cc([N+](=O)[O-])ccc12 | 0.297 µM | 12.3 µM | 0.036 µM | 15.3 µM | 0.0463 µM | 1.15 µM | 0.0355 µM | 4.3 µM | 0.0848 µM | 10.5 µM | 0.0586 µM | 0.901 µM | 0.0202 µM | 1.37 µM | 0.0191 µM | 12.8 µM | 0.104 µM | 0.715 µM | < 0.01 µM | 1.01 µM |
| Cc1cc2c(F)c(Oc3ncnc(Nc4ccc(N5C[C@@H](C)N[C@@H](C)C5)cc4)c3C#N)cc(F)c2[nH]1 | 3.39 µM | 14.7 µM | 3.39 µM | 14.3 µM | 2.84 µM | 8.02 µM | 5.07 µM | 18.8 µM | 1.22 µM | 6.04 µM | 1.75 µM | 3.46 µM | 0.583 µM | 2.49 µM | 2.07 µM | 8.36 µM | 1.39 µM | 11.6 µM | 1.87 µM | 3.59 µM |
